This test concerns Plasmodium falciparum. Nature of the test: GSK_TCMDC: Inhibition of Plasmodium falciparum 3D7 in whole erythrocytes, using parasite LDH activity as an index of growth. Type of test: functional, organism-based. As to conditions: Plasmodium falciparum, 3D7.

Each structure is given as a SMILES string.

For the compound `CC(C)c1sc(N2CCN(C)CC2)nc1C(=O)Nc1cccc2c1CCCC2`, the XC50 was found to be 1280 nM.

`Cc1cc(OCCCNc2nc(NCCc3ccc(O)cc3)nc(N3CCNCC3)n2)c(Cl)c(C)c1Cl` gave an XC50 of 956 nM.

As for `CC(CCNc1c2ccccc2nc2ccccc12)N1CCN(C)CC1` (configuration not stated), the XC50 amounted to 803 nM.

`NC(=O)c1ccccc1OCC(=O)Nc1cccc(-c2cccc(-c3nc4ccccc4[nH]3)c2)c1` had an XC50 of 376 nM.

Compound `OC(c1cccc2ccccc12)C1CN(CCc2ccccc2)CCC1(O)c1ccccc1` (configuration not stated) returned an XC50 of 145 nM.

As for `CCn1ncc(Cl)c1CN(C)S(=O)(=O)c1ccc2ccccc2c1`, the XC50 was found to be 818 nM.

Consider `CCOC(=O)c1nc(-c2ccc(-c3ccccc3)cc2)[nH]c1N`, for which the XC50 turned out to be 422 nM.

Compound `O=C(N/N=C/c1nc2ccccc2[nH]1)c1cccc([N+](=O)[O-])c1` had an XC50 of 628 nM.

With `O=C(C=Cc1ccc(Cl)c(Cl)c1)NCCCCCN1CCCC(CCCNC(=O)c2ccc3c(c2)OCO3)C1` (configuration not stated), the XC50 turned out to be 1220 nM.

The compound `Fc1cc(Cl)ccc1Nc1ccnc(Nc2ccc3cn[nH]c3c2)n1` had an XC50 of 737 nM.

`CN(CCCCN)Cc1ccc(-c2ccc(Cl)cc2)cc1` came in with an XC50 of 882 nM.

`CCCCCCC(C)c1cc(OCCN(CC)CC)c2c(c1)OC(C)(C)C=C2c1ccncc1` (configuration not stated) gave an XC50 of 1260 nM.

Compound `Cc1ccccc1C1CCN(C2CCC(NC(=O)c3cc(-c4ccc(Cl)cc4)cs3)CC2)CC1` (configuration not stated) showed an XC50 of 158 nM.

`Cn1cc(-c2ccccc2C(=O)O)c(=O)c2cc(Cl)ccc21`: the XC50 is 917 nM.

In the case of `COc1ccc(CCNCC(O)COc2nccc3c(S(=O)(=O)N4CCCNCC4)cccc23)cc1OC` (configuration not stated), the XC50 came to 269 nM.

`N#Cc1ccc(C(=O)Nc2ccc(Cl)c(N3CCN(CCc4ccccc4)CC3)c2)cc1` displayed an XC50 of 929 nM.

Consider `Nc1cccc(CNCc2ccc(-c3ccc(-c4nc5cc(F)ccc5[nH]4)s3)cc2)c1`, for which the XC50 is 992 nM.

For the compound `Cc1cccc(-c2ccc(NC(=O)C3CCN(Cc4cccc(O)c4)CC3)cc2)c1`, the XC50 came to 975 nM.

The compound `CC[C@H]1CN2CC[C@H]1C[C@H]2[C@H](O)c1cc(N2CCC3CCCCC3C2)nc2ccc(OC)cc12` (some centres not stated) came in with an XC50 of 170 nM.

For `COc1ccc(NC(=O)C2c3ccccc3C(=O)N(C3CCCC3)C2c2cccs2)cc1OC` (configuration not stated), the XC50 turned out to be 1090 nM.

In turn, `CCc1cn2c3c(cc(C(=O)N[C@@H](Cc4ccccc4)[C@H](O)CNCC(C)C)cc13)N(C)S(=O)(=O)CC2` returned an XC50 of 37.6 nM.

`O=C(Nc1cc(Cl)ccc1Cl)N[C@H]1CCN(CCCCCNC(=O)C2CC2c2ccc(Cl)c(Cl)c2)C1` (some centres not stated) registered an XC50 of 770 nM.

The compound `N#Cc1ccc2[nH]c(-c3ccccc3)nc2c1` came in with an XC50 of 698 nM.

The compound `CCCC(C)NC(=O)[C@H](CC1CCCCC1)NC(=O)c1ccc(O)c(-c2cccc(C(F)(F)F)c2)c1` (some centres not stated) yielded an XC50 of 534 nM.

As to `Cc1ccc(C(NC(=O)C2CCCCC2)c2ccc3cccnc3c2O)cc1` (configuration not stated), the XC50 was 953 nM.

`Cc1cccc2nc(-c3cccc(-c4ccc(NC(=O)C5CCN(C)CC5)cc4)c3)[nH]c12` registered an XC50 of 829 nM.

For `Cc1nc(C)c(-c2ccc(Oc3ccc(Cl)cc3)c(Cl)c2)c(O)c1Br`, the XC50 turned out to be 495 nM.

In the case of `COc1ccc2nccc([C@@H](O)CN3CCC(NC(=O)c4cccc(C(=O)c5ccccc5)c4)CC3)c2c1`, the XC50 came to 685 nM.

With `CCNc1cc(C(=O)N[C@@H](Cc2ccccc2)[C@H](O)CN[C@H]2CCc3ccccc32)cc(N2CCCC2=O)c1`, the XC50 is 295 nM.

Take `CCOc1cc(C)ccc1C1CCN(CCCCNC(=O)c2cnc(-c3ccc(C(F)(F)F)cc3)[nH]2)CC1`: the XC50 was 771 nM.

Take `N#Cc1cccc(Nc2nccc(NCC(O)c3ccccc3C(F)(F)F)n2)c1` (configuration not stated): the XC50 stood at 827 nM.

On to `Clc1cc(Nc2ccnc3ccc(Br)cc23)ccc1Oc1ccc2ccccc2c1Cl`, for which the XC50 was 725 nM.

`CC(C)CCNCc1ccc(OCc2cccc(COc3ccc(CNCCC(C)C)cc3I)c2)c(I)c1` yielded an XC50 of 453 nM.

As to `N#Cc1cccc(C(=O)Nc2cccc(-c3ccc(C(=O)Nc4cccnc4)cc3)c2)c1`, the XC50 came to 693 nM.

`N=c1n(CCN2CCCCC2)c2ccccc2n1CC(=O)c1cccc([N+](=O)[O-])c1`: the XC50 was found to be 879 nM.

Turning to `CC1(C)NC(N)=NC(=N)N1OCc1nc(N)nc(Nc2ccccc2)n1`, the XC50 is 274 nM.

For the compound `CCCN1CCN(Cc2ccc(-c3ccc(-c4nc5ccccc5[nH]4)s3)cc2)CC1`, the XC50 turned out to be 611 nM.

In the case of `COc1ccc2nc(C)cc(Nc3ccc(Oc4ccc5ccccc5c4Cl)c(Cl)c3)c2c1`, the XC50 stood at 501 nM.

For the compound `CC(C)(CNC(=O)[C@H]1CCCN1)c1nc(-c2ccc(Cl)c(O)c2)c(-c2ccncc2)[nH]1`, the XC50 worked out at 1270 nM.

Consider `CCCCCCOc1ccccc1C(=O)NCCOc1ccc(Cl)cc1`, for which the XC50 worked out at 1210 nM.

Compound `COc1cc(NCC(C)CNCc2cn(Cc3ccccc3)c3ccccc23)nc2ccccc12` (configuration not stated) came in with an XC50 of 633 nM.

The compound `CCCCCCC(C)c1cc(O)c2c(c1)OC(C)(C)C=C2c1ccncc1` (configuration not stated) came in with an XC50 of 733 nM.

For `C/C=C/COc1ccc2ccccc2c1CNCCCCCCCCNCc1c(OC/C=C/C)ccc2ccccc12`, the XC50 came to 908 nM.

On to `CC1(C)[C@H]2CC[C@@H](CNc3nc(NCCc4c[nH]cn4)nc(NCc4cc(F)ccc4F)n3)[C@@H]1C2`, for which the XC50 is 311 nM.

Compound `Cc1cccc2nc(-c3cccc(-c4cccc(NC(=O)c5ccncc5)c4)c3)[nH]c12` displayed an XC50 of 236 nM.

In the case of `O=C(Nc1ccc(CC(=O)N2CCc3cc(Cl)c(N4CCN(C/C=C/c5ccccc5)CC4)cc32)cc1)Nc1cccc([N+](=O)[O-])c1`, the XC50 worked out at 761 nM.

On to `Cc1cc(C(=O)Nc2ccc3c(c2)CCN3C2CCN(Cc3cc(F)cc(F)c3F)C2)no1` (configuration not stated), for which the XC50 is 282 nM.

In turn, `Cc1cc(NCC(c2ccccc2)c2ccccc2)nc(NCc2ccc(C(F)(F)F)cc2)n1` came in with an XC50 of 246 nM.

As for `Cn1nccc1C(=O)NCCNCc1ccc(-c2cccc(-c3nc4cc(F)ccc4[nH]3)c2)cc1`, the XC50 was 218 nM.

Take `O=C(NC1CCC(N2CCC(O)(c3ccc(F)cc3)CC2)CC1)c1cc2ccccc2[nH]1` (configuration not stated): the XC50 was determined as 736 nM.

`COc1ccc(OCC(=O)Nc2nc(-c3ccc(OC)cc3)c(C)s2)cc1` yielded an XC50 of 1950 nM.

Compound `O=C(Cc1ccc(NC(=O)c2ccc(O)c(-c3ccc(Cl)c(Cl)c3)c2)cc1)NCc1cccc(C(F)(F)F)c1` yielded an XC50 of 878 nM.

`Cc1cc2c(cc1C(F)(F)F)N(C(=O)Nc1ccc(C(=O)NCCN3CCCC3)cc1)CC2`: the XC50 was found to be 321 nM.

With `CC1=NN(c2ccc(C)c(C)c2)C(=O)C1=NNc1cccc(-c2cccc(NC(=O)OC(C)(C)C)c2)c1O`, the XC50 is 695 nM.

`Cc1cc(N2CCCC2=O)ccc1-c1ccc(C(=O)N2CCC(Oc3cccc(Cl)c3)CC2)cc1` gave an XC50 of 427 nM.

With `O=C1SC(=Cc2ccc(O)c(O)c2)C(=O)N1c1ccccc1`, the XC50 came out at 1200 nM.

`CCC1CCc2cc(N)cc(-c3nc4c(c(C)nn4CC)c(=O)[nH]3)c2O1` (configuration not stated) displayed an XC50 of 1120 nM.

As for `COc1cc(CC(C)NCC(O)c2cccc(C(F)(F)F)c2)ccc1OCc1ccccc1` (configuration not stated), the XC50 is 818 nM.

Regarding `O=C1NC(=O)C(c2cccc(NC(=O)c3ccncc3)c2)=C1c1ccccc1`, the XC50 worked out at 735 nM.

In the case of `COc1ccc(C2CNCc3c2cc(OC)c(OC)c3Cl)cc1` (configuration not stated), the XC50 turned out to be 731 nM.

As to `O=C(Nc1ccc(SC(F)(F)F)cc1)Nc1ccnc2ccccc12`, the XC50 is 746 nM.

In turn, `CN(C)CCNC(=O)c1ccc(-c2cnc3ccc(NCc4ccc(Cl)c(Cl)c4)nn23)cc1` had an XC50 of 913 nM.

The record behind these values is ChEMBL document CHEMBL1157539, “Thousands of chemical starting points for antimalarial lead identification” (Nature, 2010).
